According to ChEMBL document CHEMBL4325888, “Medicinal chemistry of vicinal diaryl scaffold: A mini review” (Eur J Med Chem, 2019):
pIC50: −log10 of the molar value.

Key:
MCF7 [1] = assay: cells; assay type: functional, cell-based; conditions: Homo sapiens
Tubulin = assay type: protein-complex assay, Homo sapiens
[2] = molecular target: T1, Prostaglandin G/H synthase 2 (Ovis aries, UniProt P79208)
T1 sequence (P79208 whole entry): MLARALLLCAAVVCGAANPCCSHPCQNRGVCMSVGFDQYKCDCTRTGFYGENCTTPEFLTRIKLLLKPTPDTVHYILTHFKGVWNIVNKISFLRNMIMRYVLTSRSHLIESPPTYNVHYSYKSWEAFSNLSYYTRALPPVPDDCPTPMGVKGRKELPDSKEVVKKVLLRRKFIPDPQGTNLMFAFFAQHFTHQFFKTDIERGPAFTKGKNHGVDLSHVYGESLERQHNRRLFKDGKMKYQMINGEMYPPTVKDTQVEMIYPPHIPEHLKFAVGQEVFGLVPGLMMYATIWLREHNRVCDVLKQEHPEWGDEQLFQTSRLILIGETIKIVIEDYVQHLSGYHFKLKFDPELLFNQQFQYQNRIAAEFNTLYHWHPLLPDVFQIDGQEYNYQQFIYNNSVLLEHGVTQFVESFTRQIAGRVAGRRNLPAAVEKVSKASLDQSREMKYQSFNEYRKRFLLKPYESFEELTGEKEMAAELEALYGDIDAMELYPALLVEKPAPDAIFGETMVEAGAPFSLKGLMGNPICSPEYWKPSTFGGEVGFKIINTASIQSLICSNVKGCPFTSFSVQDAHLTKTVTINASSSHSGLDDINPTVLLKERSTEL

[3] = molecular target: T2, Prostaglandin G/H synthase 1 (Mus musculus, UniProt P22437)
T2 sequence (P22437 whole entry): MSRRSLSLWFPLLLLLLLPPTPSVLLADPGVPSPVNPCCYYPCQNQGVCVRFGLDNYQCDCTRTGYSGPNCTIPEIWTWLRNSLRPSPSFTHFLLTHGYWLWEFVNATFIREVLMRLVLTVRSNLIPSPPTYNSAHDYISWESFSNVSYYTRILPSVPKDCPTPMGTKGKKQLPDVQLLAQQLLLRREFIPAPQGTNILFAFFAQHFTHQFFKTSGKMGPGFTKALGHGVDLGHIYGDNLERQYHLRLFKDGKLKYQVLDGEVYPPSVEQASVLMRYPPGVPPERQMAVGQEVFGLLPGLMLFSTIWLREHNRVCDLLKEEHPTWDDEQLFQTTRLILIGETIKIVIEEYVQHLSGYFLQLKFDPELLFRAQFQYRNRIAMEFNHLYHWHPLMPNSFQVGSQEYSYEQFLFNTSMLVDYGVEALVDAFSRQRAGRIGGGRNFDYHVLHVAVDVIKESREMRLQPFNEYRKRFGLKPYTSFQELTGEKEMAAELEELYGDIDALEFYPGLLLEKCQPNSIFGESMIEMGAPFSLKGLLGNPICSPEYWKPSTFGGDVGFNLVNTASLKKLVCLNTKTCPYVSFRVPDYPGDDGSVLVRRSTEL

MCF7 [4] = assay: cells; assay type: functional, cell-based; conditions: Homo sapiens, MCF7, 48 h
Rattus norvegicus = organism: Rattus norvegicus; assay: animal or person; assay type: functional
[5] = molecular target: T1, Prostaglandin G/H synthase 2; remark: listed apart in the source

For `COc1ccc(-c2oc(O)nc2-c2cc(OC)c(OC)c(OC)c2)cc1N`, the pIC50 (MCF7 [1]) was 5.31.
In the case of `COc1ccc([C@@H]2OCO[C@H]2c2cc(OC)c(OC)c(OC)c2)cc1O`, the pIC50 (Tubulin) was 5.22 to 5.40.
`Cc1ccc(-c2cc(C(F)(F)F)nn2-c2ccc(N=[N+]=[N-])cc2)cc1` showed a pIC50 [2] of 5.81.
For `CC1(C)OC(c2ccc(S(N)(=O)=O)cc2)=C(c2cccc(F)c2)C1=O` [POLMACOXIB], the pIC50 [3] was 8.52.
In the case of `COC(=O)c1ccc(-n2nc(C(F)(F)F)cc2-c2cc(OC)c(OC)c(OC)c2)cc1`, the pIC50 (MCF7 [4]) was 5.89.
`COc1ccc(-c2coc(=O)n2-c2cc(OC)c(OC)c(OC)c2)cc1N` gave a pIC50 (MCF7 [1]) of 5.74.
Compound `CS(=O)(=O)c1ccc(-c2snnc2-c2ccc(F)cc2)cc1` has an ED50 (Rattus norvegicus) of 0.7 mg/kg.
In the case of `[N-]=[N+]=Nc1ccc(C2=C(c3ccccc3)C(=O)OC2)cc1`, the pIC50 [2] was 6.71.
`COc1ccc([C@H]2OCO[C@@H]2c2cc(OC)c(OC)c(OC)c2)cc1O` was tested, and the pIC50 (Tubulin) was < 4.30.
`CC1C(c2ccc(F)cc2)=C(c2ccc(S(C)(=O)=O)cc2)ON1C` (stereo not given) gave a pIC50 [5] of 7.50.
